Data as given in ChEMBL document CHEMBL3132769, “Fragment growing to retain or alter the selectivity of anchored kinase hinge-binding fragments” (Medchemcomm, 2014).

Key:
[1] = target: T1, cGMP-dependent protein kinase 1 (Homo sapiens) (UniProt Q13976); test: Inhibition of human full length PKG-1beta expressed in baculovirus assessed as substrate phosphorylation using fluorescence-labelled peptides as substrate at 95 uM after 90 mins by microfluidic peptide phosphorylation assay
T1 sequence (whole entry): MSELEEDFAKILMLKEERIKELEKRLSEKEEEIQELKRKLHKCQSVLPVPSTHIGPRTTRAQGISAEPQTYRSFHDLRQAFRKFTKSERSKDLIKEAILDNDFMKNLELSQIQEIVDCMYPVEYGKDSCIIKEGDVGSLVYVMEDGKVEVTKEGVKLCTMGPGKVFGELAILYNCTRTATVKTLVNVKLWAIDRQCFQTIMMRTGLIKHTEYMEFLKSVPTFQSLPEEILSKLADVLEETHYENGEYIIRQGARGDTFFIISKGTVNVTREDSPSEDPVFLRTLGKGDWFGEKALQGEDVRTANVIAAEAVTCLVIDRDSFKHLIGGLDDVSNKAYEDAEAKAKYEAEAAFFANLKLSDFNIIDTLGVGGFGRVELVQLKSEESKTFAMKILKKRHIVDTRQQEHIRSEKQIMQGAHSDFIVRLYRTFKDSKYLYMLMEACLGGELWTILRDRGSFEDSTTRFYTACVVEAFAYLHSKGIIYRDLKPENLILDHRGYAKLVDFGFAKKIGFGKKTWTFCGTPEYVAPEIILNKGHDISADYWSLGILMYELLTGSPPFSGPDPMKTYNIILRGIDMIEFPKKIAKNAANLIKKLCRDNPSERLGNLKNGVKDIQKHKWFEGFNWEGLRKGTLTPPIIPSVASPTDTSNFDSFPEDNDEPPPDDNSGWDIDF

[2] = target: Ribosomal protein S6 kinase alpha-5 (Homo sapiens) (UniProt O75582); test: Inhibition of human full length MSK1 expressed in baculovirus assessed as substrate phosphorylation using fluorescence-labelled peptides as substrate at 95 uM after 90 mins by microfluidic peptide phosphorylation assay
Chain of Ribosomal protein S6 kinase alpha-5 (Homo sapiens) (O75582 whole entry, looked up, the tested form may be a part): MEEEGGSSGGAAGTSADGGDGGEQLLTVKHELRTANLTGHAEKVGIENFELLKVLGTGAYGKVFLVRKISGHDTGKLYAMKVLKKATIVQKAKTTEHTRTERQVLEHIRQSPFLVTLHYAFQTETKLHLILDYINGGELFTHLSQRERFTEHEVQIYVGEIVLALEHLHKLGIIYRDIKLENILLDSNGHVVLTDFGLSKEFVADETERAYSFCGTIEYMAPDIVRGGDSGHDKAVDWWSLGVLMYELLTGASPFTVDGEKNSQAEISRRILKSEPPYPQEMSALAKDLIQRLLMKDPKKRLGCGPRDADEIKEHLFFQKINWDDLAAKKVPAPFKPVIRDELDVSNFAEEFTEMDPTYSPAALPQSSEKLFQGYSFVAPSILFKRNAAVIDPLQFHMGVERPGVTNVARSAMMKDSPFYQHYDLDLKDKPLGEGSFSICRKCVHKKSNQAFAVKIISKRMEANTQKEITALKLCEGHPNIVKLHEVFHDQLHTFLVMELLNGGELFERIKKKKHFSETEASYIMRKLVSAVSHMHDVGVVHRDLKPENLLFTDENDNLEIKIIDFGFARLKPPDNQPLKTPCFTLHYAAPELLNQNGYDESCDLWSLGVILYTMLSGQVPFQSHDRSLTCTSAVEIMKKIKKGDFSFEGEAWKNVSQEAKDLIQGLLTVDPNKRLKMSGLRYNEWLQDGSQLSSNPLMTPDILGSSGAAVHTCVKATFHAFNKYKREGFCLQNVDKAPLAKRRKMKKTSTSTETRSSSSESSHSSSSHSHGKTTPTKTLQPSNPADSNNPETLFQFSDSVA

[3] = target: Insulin-like growth factor 1 receptor (Homo sapiens) (UniProt P08069); test: Inhibition of human IGF1R catalytic domain expressed in baculovirus assessed as substrate phosphorylation using fluorescence-labelled peptides as substrate at 95 uM after 90 mins by microfluidic peptide phosphorylation assay
[4] = target: Rho-associated protein kinase 2 (Homo sapiens) (UniProt O75116); test: Inhibition of human ROCK2 catalytic domain expressed in baculovirus assessed as substrate phosphorylation using fluorescence-labelled peptides as substrate at 0.06 uM after 90 mins by microfluidic peptide phosphorylation assay
Chain of Rho-associated protein kinase 2 (Homo sapiens) (O75116 whole entry, looked up, the tested form may be a part): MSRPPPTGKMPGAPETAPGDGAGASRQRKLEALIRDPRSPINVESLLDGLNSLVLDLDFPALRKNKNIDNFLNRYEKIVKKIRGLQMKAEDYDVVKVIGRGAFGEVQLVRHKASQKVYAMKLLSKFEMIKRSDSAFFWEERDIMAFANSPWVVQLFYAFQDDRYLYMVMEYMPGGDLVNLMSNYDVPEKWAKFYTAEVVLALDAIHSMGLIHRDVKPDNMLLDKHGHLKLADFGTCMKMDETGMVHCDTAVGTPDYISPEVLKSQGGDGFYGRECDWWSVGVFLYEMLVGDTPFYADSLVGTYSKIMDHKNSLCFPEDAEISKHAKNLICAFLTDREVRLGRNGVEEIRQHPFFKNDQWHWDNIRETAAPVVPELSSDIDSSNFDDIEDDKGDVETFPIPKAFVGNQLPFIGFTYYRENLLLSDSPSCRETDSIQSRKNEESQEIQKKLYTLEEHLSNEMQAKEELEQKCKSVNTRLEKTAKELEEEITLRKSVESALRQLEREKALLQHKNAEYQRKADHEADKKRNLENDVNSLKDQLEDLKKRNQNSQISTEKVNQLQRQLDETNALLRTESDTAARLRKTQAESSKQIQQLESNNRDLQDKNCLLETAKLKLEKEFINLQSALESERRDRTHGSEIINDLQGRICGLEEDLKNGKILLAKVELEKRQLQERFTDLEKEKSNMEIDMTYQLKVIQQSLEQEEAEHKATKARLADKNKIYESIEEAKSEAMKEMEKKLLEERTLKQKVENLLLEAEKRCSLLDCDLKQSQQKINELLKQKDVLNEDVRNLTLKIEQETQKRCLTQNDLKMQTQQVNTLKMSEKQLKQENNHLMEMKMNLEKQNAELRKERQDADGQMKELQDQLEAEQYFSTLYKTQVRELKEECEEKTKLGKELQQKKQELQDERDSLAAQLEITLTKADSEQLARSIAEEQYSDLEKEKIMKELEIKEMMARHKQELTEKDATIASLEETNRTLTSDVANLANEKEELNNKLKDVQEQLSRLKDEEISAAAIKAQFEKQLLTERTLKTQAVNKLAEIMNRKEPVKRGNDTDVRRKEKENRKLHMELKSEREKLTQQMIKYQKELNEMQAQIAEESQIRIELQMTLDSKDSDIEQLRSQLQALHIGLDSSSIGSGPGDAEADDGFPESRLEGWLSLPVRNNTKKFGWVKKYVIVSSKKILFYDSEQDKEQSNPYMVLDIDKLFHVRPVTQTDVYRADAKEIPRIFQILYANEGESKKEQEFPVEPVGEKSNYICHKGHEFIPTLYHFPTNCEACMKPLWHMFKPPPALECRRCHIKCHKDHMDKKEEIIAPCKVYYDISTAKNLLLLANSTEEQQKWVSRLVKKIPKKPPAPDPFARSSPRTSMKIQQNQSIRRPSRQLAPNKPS

[5] = target: Serine/threonine-protein kinase MARK1 (Homo sapiens) (UniProt Q9P0L2); test: Inhibition of human full length MARK1 expressed in baculovirus assessed as substrate phosphorylation using fluorescence-labelled peptides as substrate at 0.06 uM after 90 mins by microfluidic peptide phosphorylation assay
Chain of Serine/threonine-protein kinase MARK1 (Homo sapiens) (Q9P0L2 whole entry, looked up): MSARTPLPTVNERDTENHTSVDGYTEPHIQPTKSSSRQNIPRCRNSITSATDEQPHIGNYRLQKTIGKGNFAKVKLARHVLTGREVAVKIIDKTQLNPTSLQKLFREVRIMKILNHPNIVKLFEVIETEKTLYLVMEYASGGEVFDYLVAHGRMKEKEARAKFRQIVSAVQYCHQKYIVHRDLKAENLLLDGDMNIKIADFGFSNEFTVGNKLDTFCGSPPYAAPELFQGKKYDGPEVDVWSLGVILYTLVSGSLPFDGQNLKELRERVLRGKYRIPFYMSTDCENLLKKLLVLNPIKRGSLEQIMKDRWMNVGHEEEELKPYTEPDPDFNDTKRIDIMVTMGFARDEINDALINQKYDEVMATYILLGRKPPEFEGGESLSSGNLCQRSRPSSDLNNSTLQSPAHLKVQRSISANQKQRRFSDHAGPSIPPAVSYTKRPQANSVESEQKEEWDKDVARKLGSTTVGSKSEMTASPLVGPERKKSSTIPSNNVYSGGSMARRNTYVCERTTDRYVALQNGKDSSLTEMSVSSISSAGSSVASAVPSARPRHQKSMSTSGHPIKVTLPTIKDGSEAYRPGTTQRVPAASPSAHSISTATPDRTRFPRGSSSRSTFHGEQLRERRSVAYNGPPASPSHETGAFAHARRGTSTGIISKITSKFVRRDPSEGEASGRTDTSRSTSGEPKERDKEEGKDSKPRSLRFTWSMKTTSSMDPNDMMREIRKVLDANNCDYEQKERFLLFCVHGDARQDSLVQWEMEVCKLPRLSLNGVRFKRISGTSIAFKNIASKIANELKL

[6] = target: Glycogen synthase kinase-3 beta (Homo sapiens) (UniProt P49841); details: 0.1 uM
Chain of Glycogen synthase kinase-3 beta (Homo sapiens) (P49841 whole entry, looked up): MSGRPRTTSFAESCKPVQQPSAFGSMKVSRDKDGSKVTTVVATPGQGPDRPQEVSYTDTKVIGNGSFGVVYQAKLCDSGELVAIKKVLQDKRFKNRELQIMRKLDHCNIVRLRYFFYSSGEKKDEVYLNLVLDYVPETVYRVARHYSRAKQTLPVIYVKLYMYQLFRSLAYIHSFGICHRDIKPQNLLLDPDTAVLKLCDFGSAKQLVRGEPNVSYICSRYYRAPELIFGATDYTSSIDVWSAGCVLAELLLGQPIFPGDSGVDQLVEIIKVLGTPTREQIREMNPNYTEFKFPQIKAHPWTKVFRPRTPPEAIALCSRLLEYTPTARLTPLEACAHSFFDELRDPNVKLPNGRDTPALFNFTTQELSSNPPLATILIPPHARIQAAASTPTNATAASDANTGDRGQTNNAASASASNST
Description: Inhibition of human full length GSK-3 beta expressed in baculovirus assessed as substrate phosphorylation using fluorescence-labelled peptides as substrate at 0.1 uM after 90 mins by microfluidic peptide phosphorylation assay

[7] = target: T2, Serine/threonine-protein kinase D2 (Homo sapiens) (UniProt Q9BZL6); details: 0.1 uM
T2 sequence (whole entry): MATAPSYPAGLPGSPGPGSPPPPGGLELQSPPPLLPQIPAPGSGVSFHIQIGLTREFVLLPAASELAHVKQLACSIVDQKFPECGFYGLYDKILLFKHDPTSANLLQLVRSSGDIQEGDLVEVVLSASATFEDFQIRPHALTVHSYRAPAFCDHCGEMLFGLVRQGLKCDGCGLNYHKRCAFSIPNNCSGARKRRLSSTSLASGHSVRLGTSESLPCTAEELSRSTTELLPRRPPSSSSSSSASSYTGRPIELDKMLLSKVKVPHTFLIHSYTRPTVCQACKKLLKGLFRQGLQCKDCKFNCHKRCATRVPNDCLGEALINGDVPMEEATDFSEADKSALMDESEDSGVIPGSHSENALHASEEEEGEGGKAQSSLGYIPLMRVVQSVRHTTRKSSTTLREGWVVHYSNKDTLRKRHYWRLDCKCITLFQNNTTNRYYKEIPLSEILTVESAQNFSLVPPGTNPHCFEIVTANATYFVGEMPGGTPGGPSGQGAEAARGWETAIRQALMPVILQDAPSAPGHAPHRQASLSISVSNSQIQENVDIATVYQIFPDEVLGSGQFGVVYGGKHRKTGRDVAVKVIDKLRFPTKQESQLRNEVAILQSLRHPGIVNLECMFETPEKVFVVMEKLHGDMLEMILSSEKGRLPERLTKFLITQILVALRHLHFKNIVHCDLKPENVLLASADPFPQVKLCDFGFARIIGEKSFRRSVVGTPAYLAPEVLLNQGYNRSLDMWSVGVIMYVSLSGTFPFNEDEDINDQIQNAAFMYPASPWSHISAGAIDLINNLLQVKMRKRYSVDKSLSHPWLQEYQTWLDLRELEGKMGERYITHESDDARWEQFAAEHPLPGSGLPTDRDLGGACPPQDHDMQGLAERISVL
Description: Inhibition of human full length PKD2 expressed in baculovirus assessed as substrate phosphorylation using fluorescence-labelled peptides as substrate at 0.1 uM after 90 mins by microfluidic peptide phosphorylation assay

[8] = target: Mitogen-activated protein kinase kinase kinase kinase 4 (Homo sapiens) (UniProt O95819); test: Inhibition of human HGK catalytic domain expressed in baculovirus assessed as substrate phosphorylation using fluorescence-labelled peptides as substrate at 420 uM after 90 mins by microfluidic peptide phosphorylation assay
[9] = target: Protein kinase C delta type (Homo sapiens) (UniProt Q05655); test: Inhibition of human truncated PKC delta expressed in baculovirus assessed as substrate phosphorylation using fluorescence-labelled peptides as substrate at 70 uM after 90 mins by microfluidic peptide phosphorylation assay
Chain of Protein kinase C delta type (Homo sapiens) (Q05655 whole entry, looked up, the tested form may be a part): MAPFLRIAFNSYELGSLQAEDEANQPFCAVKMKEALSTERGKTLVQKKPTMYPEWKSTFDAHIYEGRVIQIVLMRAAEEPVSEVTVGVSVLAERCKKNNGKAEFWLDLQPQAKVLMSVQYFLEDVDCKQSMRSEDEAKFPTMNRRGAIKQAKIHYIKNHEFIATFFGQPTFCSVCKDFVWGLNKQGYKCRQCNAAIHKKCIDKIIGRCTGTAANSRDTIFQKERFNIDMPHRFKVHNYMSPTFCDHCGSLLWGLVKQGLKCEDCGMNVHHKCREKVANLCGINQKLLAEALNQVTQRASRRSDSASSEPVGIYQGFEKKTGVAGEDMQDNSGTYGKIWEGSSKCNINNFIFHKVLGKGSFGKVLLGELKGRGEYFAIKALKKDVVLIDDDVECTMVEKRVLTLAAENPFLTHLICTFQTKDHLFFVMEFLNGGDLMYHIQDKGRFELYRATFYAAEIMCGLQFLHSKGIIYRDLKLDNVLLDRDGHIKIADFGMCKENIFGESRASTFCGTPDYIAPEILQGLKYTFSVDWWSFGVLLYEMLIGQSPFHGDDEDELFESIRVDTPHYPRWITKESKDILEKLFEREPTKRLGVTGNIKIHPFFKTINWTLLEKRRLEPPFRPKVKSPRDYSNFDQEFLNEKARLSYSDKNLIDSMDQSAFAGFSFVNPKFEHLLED

[10] = target: Protein kinase C beta type (Homo sapiens) (UniProt P05771); test: Inhibition of human full length PKC beta2 expressed in baculovirus assessed as substrate phosphorylation using fluorescence-labelled peptides as substrate at 70 uM after 90 mins by microfluidic peptide phosphorylation assay
[11] = target: Tyrosine-protein kinase Lck (Homo sapiens) (UniProt P06239); test: Inhibition of human full length LCK expressed in baculovirus assessed as substrate phosphorylation using fluorescence-labelled peptides as substrate at 0.2 uM after 90 mins by microfluidic peptide phosphorylation assay
[12] = target: Tyrosine-protein kinase Fyn (Homo sapiens) (UniProt P06241); test: Inhibition of human full length FYN expressed in baculovirus assessed as substrate phosphorylation using fluorescence-labelled peptides as substrate at 0.2 uM after 90 mins by microfluidic peptide phosphorylation assay
Chain of Tyrosine-protein kinase Fyn (Homo sapiens) (P06241 2-537 limits assumed): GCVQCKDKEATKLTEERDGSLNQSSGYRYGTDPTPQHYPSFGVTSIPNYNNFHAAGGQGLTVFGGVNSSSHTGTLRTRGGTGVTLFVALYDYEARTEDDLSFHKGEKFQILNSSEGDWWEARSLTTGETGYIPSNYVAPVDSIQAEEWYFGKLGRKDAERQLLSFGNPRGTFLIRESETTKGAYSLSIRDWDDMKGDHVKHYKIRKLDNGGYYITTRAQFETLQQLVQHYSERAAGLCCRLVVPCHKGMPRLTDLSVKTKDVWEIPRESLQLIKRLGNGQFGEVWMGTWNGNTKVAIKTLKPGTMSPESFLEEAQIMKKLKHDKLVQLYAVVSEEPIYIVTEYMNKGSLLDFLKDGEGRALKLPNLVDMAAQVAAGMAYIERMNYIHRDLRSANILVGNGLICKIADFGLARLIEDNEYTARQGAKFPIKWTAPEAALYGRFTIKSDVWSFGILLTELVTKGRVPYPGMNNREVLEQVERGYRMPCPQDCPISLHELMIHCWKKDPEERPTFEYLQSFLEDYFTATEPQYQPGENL

[13] = target: Ribosomal protein S6 kinase alpha-5 (Homo sapiens) (UniProt O75582); test: Inhibition of human full length MSK1 expressed in baculovirus assessed as substrate phosphorylation using fluorescence-labelled peptides as substrate at 8 uM after 90 mins by microfluidic peptide phosphorylation assay
[14] = target: Cyclin-dependent kinase 2 (Homo sapiens) (UniProt P24941); test: Inhibition of human full length CDK2 expressed in baculovirus assessed as substrate phosphorylation using fluorescence-labelled peptides as substrate at 1000 uM after 90 mins by microfluidic peptide phosphorylation assay

SMILES: NCCc1ccc(-c2ncnc3[nH]cnc23)cc1
- inhibition [1]: 93%
- inhibition [2]: 76%
- inhibition [3]: 20.5%

SMILES: NC1(Cc2ccc(Cl)cc2)CCN(c2ncnc3[nH]ccc23)CC1
- inhibition [4]: 0%
- inhibition [5]: 4.5%

SMILES: C[C@H](CN(C)C)Oc1nc(Nc2cc3cccc(Cl)c3cn2)cnc1C#N
- inhibition [6]: 0%
- inhibition [7]: 0%

SMILES: c1nc(N2CCOCC2)c2nc[nH]c2n1
- inhibition [8]: 78.5%

SMILES: CNCc1ccc(-c2ncnc3[nH]cnc23)cc1
- inhibition [9]: 60%
- inhibition [10]: 0%

SMILES: Clc1ccc(C2(c3ccc(-c4ncnc5[nH]cnc45)cc3)CCNCC2)cc1
- inhibition [11]: 35%
- inhibition [12]: 16%

SMILES: NCC1CCN(c2ncnc3[nH]ccc23)CC1
- inhibition [13]: 68%

SMILES: c1cnc2[nH]ccc2c1
- inhibition [14]: 45.5%
